The subject of one test is THP-1 cells. The experiment in a line: TNFα generation assay. In kind it is cell-based, human. Conditions: Homo sapiens, THP-1, THP-1 cells; Table 22; read-out: IC50 in TNFα generation assay. Put shortly:
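THP-1 cells differentiated to macrophage-like cells with 10 ng/ml IFN-γ for 2 days, preincubated with compound 30 min at room temperature, then cultured 7 h on plates coated with human IgG (10 μg/ml). Secreted TNFα measured by ELISA or AlphaLISA.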

Test [1] addresses T1, glutathione S-transferase (GST)-fused full-length human Syk protein (Homo sapiens, UniProt P43405).
T1 construct: (GST)-fused full-length human Syk protein; GST (glutathione S-transferase); purchased Carna Biosciences
The experiment in a line: Syk enzyme assay. Conditions: Syk enzyme assay, Test Example 1; read-out: IC50 of Syk-inhibitory activity. In kind it is biochemical. Put shortly: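 IC50 values come from a time-resolved FRET readout (615 and 665 nm) of substrate phosphorylation, measured after an EDTA stop and 1 h antibody binding. The kinase reaction ran 40 min at room temperature with 27 μM ATP and 0.4 μM biotin-peptide, following a 15 min compound preincubation with baculovirus-made GST-full-length human Syk.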

SMILES strings stand for the structures.

Take `NC(=O)c1cc(F)c(NCC2(N)CC2)nc1Nc1ccc2ncccc2c1` [Example 014-014, 6-((1-aminocyclopropylmethyl)amino)-5-fluoro-2-((quinolin-6-yl)amino)nicotinamide]: the IC50 in the test with THP-1 cells was 130 to 200 nM; in test [1] it was less than 10 nM.
Consider `NC(=O)c1cc(F)c(N[C@@H]2CCCC[C@@H]2N)nc1Nc1ccc2c(cnn2C2CC2)c1` [Example 006-472, 6-(((1R,2S)-2-aminocyclohexyl)amino)-2-((1-cyclopropyl-1H-indazol-5-yl)amino)-5-fluoronicotinamide], for which the IC50 with THP-1 cells was 65 to 130 nM; in test [1] it was less than 10 nM.
For the molecule `Cn1ncc2cc(Nc3nc(N[C@@H](CN)CC4CC4)c(F)cc3C(N)=O)ccc21` [Example 006-282, (R)-6-((1-amino-3-cyclopropylpropan-2-yl)amino)-5-fluoro-2-((1-methyl-1H-indazol-5-yl)amino)nicotinamide], the IC50 was less than 65 nM in the test with THP-1 cells and less than 10 nM in test [1].
Take `CCC[C@@H](Nc1nc(Nc2ccc3c(OC)nccc3c2)c(C(N)=O)cc1F)[C@H](C)N` [Example 006-239, 6-(((2S,3R)-2-aminohexan-3-yl)amino)-5-fluoro-2-((1-methoxyisoquinolin-6-yl)amino)nicotinamide]: the IC50 is less than 65 nM in the test on THP-1 cells and less than 10 nM in test [1].
For `NC(=O)c1cc(F)c(N[C@@H]2CCCC[C@@H]2N)nc1Nc1ccnc(-n2ccnc2)c1` (relative stereo) [Example 006-128, 2-((2-(1-imidazol-1-yl)pyridin-4-yl)amino)-6-((cis-2-aminocyclohexyl)amino)-5-fluoronicotinamide], the IC50 with THP-1 cells lay in the range of 130 to 200 nM; in test [1], 10 to 50 nM.
Consider `NC(=O)c1cc(F)c(NC2CCCCC2N)nc1Nc1ccc2nn(Cc3ccccc3)cc2c1` (centres unmarked) [Example 002-037], for which the IC50 in the test on THP-1 cells is 130 to 200 nM; in test [1], less than 10 nM.
Turning to `Cc1cc(Nc2nc(N[C@@H]3CCCC[C@@H]3N)c(F)cc2C(N)=O)cnc1-n1cccn1` [Example 006-499, 6-(((1R,2S)-2-aminocyclohexyl)amino)-5-fluoro-2-((5-methyl-6-(1H-pyrazol-1-yl)pyridin-3-yl)amino)nicotinamide], the figures for the IC50 (in the test with THP-1 cells; in test [1]) were 130 to 200 nM and 10 to 50 nM, respectively.
Turning to `COc1ccc2cc(Nc3nc(N[C@H](CC4CC4)[C@H](C)N)c(F)cc3C(N)=O)cnc2c1` [Example 006-346, 6-(((2R,3S)-3-amino-1-cyclopropylbutan-2-yl)amino)-5-fluoro-2-((7-methoxyquinolin-3-yl)amino)nicotinamide], the IC50 is 130 to 200 nM in the test on THP-1 cells and less than 10 nM in test [1].
`CC[C@@H](Nc1nc(Nc2ccc3c(c2)c(C)nn3CC)c(C(N)=O)cc1F)[C@H](C)N` [Example 006-525, 6-(((2S,3R)-2-aminopentan-3-yl)amino)-2-((1-ethyl-3-methyl-1H-indazol-5-yl)amino)-5-fluoronicotinamide]: the IC50 in the test with THP-1 cells was 65 to 130 nM; in test [1], less than 10 nM.
Regarding `CCCC[C@@H](Nc1nc(Nc2ccc3c(cnn3CCOC)c2)c(C(N)=O)cc1F)[C@H](C)N` [Example 006-389, 6-(((2S,3R)-2-aminoheptane-3-yl)amino)-5-fluoro-2-((1-(2-methoxyethyl)-1H-indazol-5-yl)amino)nicotinamide], the values for the IC50 (with THP-1 cells; in test [1]) were 65 to 130 nM and less than 10 nM, respectively.
With `CCC[C@@H](Nc1nc(Nc2ccnc(-n3nccn3)c2)c(C(N)=O)cc1F)[C@H](C)N` [Example 006-221, 2-((2-(2H-1,2,3-triazol-2-yl)pyridin-4-yl)amino)-6-(((2S,3R)-2-aminohexan-3-yl)amino)-5-fluoronicotinamide], the results for the IC50 (with THP-1 cells; in test [1]) were 65 to 130 nM and less than 10 nM, respectively.
In the case of `CCCC[C@@H](Nc1nc(Nc2ccc3c(cnn3C)c2)c(C(N)=O)cc1F)[C@H](C)N` [Example 006-387, 6-(((2S,3R)-2-aminoheptane-3-yl)amino)-5-fluoro-2-((1-methyl-1H-indazol-5-yl)amino)nicotinamide], the IC50 in the test with THP-1 cells was 65 to 130 nM; in test [1], less than 10 nM.
As to `Cc1ncc(Nc2nc(NC3CCCCC3N)c(F)cc2C(N)=O)cc1C1CC1` (centres unmarked) [Example 002-118], the IC50 in the test on THP-1 cells was 130 to 200 nM; in test [1], 10 to 50 nM.
With `CCCc1nn(C)c2ccc(Nc3nc(N[C@@H]4CCCC[C@@H]4N)c(F)cc3C(N)=O)cc12` [Example 006-456, 6-(((1R,2S)-2-aminocyclohexyl)amino)-5-fluoro-2-((1-methyl-3-propyl-1H-indazol-5-yl)amino)nicotinamide], the IC50 is 130 to 200 nM in the test with THP-1 cells and less than 10 nM in test [1].
`CCn1ncc2c(Nc3nc(NC4CCCCC4N)c(F)cc3C(N)=O)cccc21` (centres unmarked) [Example 002-186]: the IC50 in the test with THP-1 cells was 65 to 130 nM; in test [1], less than 10 nM.
On to `C[C@H](N)[C@@H](CC1CC1)Nc1nc(Nc2ccc3scnc3c2)c(C(N)=O)cc1F` [Example 006-348, 6-(((2R,3S)-3-amino-1-cyclopropylbutan-2-yl)amino)-2-(benzo[d]thiazol-5-ylamino)-5-fluoronicotinamide], for which the IC50 with THP-1 cells was 65 to 130 nM; in test [1], 10 to 50 nM.
Regarding `NC(=O)c1cc(F)c(N[C@@H]2CCCC[C@@H]2N)nc1Nc1cccc2ncccc12` [Example 37-1, 6-((1R,2S)-2-aminocyclohexylamino)-5-fluoro-2-((quinolin-5-yl)amino)nicotinamide], the figures for the IC50 (in the test on THP-1 cells; in test [1]) were less than 65 nM and less than 10 nM, respectively.
With `Cc1ncc(Nc2nc(N[C@H](CC3CC3)[C@H](C)N)c(F)cc2C(N)=O)cc1-n1nccn1` [Example 006-374, 6-(((2R,3S)-3-amino-1-cyclopropylbutan-2-yl)amino)-5-fluoro-2-((6-methyl-5-(2H-1,2,3-triazol-2-yl)pyridin-3-yl)amino)nicotinamide], the IC50 was in the range of 130 to 200 nM in the test on THP-1 cells and 10 to 50 nM in test [1].
Regarding `COCCOc1cccc(-c2cncc(Nc3nc(N[C@@H]4CCCC[C@@H]4N)c(F)cc3C(N)=O)c2)c1` (relative stereo) [Example 004-109, 6-(cis-2-aminocyclohexylamino)-5-fluoro-2-((5-(3-(2-methoxyethoxy)phenyl)pyridin-3-yl)-amino)nicotinamide], the IC50 with THP-1 cells is 130 to 200 nM; in test [1] it was less than 10 nM.
Take `CC(C)C[C@@H](Nc1nc(Nc2ccc3c(c2)c(F)nn3CC(F)F)c(C(N)=O)cc1F)[C@H](C)N` [Example 006-513, 6-(((2S,3R)-2-amino-5-methylhexan-3-yl)amino)-2-((1-(2,2-difluoroethyl)-3-fluoro-1H-indazol-5-yl)amino)-5-fluoronicotinamide]: the IC50 in the test on THP-1 cells is 65 to 130 nM; in test [1], less than 10 nM.
Take `CCC[C@@H](Nc1nc(Nc2ccnc(OCC)c2)c(C(N)=O)cc1F)[C@H](C)N` [Example 006-309, 6-(((2S,3R)-2-aminohexan-3-yl)amino)-2-((2-ethoxypyridin-4-yl)amino)-5-fluoronicotinamide]: the figures for the IC50 (with THP-1 cells; in test [1]) were 65 to 130 nM and less than 10 nM, respectively.
The corresponding values for `NC(=O)c1cc(F)c(N[C@@H]2CCCC[C@@H]2N)nc1Nc1cncc(-c2ncccn2)c1` (relative stereo) [Example 004-214, 6-(cis-2-aminocyclohexylamino)-5-fluoro-2-((5-(pyrimidin-2-yl)pyridin-3-yl)amino)nicotinamide] are 130 to 200 nM and 10 to 50 nM.

Values taken from patent publication US8895585B2, “Nicotinamide derivative or salt thereof” (FUJIFILM Corporation, priority 2010, dated 2014).
